How the values were obtained:
Experiment in all cases: relative viability (nuclei count vs DMSO), 5 days (fraction); higher = more cells survive
Ibrutinib + Bortezomib = compound: C=CC(=O)N1CCC[C@@H](n2nc(-c3ccc(Oc4ccccc4)cc3)c3c(N)ncnc32)C1 [Ibrutinib] + CC(C)C[C@H](NC(=O)[C@H](Cc1ccccc1)NC(=O)c1cnccn1)B(O)O [Bortezomib] (partner 0.002 µM)
How it was run: (§1)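 Five library-drug doses in √10 steps were combined with a fixed anchor-drug dose, or a single drug was given alone, by pin tool to lung cancer cell lines in 1536-well plates the day after seeding. Nuclei were stained and counted after 5 days. Relative viability is the nuclei count in treated wells over that in vehicle wells, taken as the median of duplicate plates.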

BMX-IN-1 + Foretinib = compound: C=CC(=O)Nc1cc(-n2c(=O)ccc3cnc4ccc(-c5ccc(NS(C)(=O)=O)cc5)cc4c32)ccc1C [BMX-IN-1] + COc1cc2c(Oc3ccc(NC(=O)C4(C(=O)Nc5ccc(F)cc5)CC4)cc3F)ccnc2cc1OCCCN1CCOCC1 [Foretinib] (partner 0.25 µM)
How it was run: as §1

Ibrutinib + Foretinib = compound: C=CC(=O)N1CCC[C@@H](n2nc(-c3ccc(Oc4ccccc4)cc3)c3c(N)ncnc32)C1 [Ibrutinib] + COc1cc2c(Oc3ccc(NC(=O)C4(C(=O)Nc5ccc(F)cc5)CC4)cc3F)ccnc2cc1OCCCN1CCOCC1 [Foretinib] (partner 0.25 µM)
How it was run: as §1

Ibrutinib + Linsitinib = compound: C=CC(=O)N1CCC[C@@H](n2nc(-c3ccc(Oc4ccccc4)cc3)c3c(N)ncnc32)C1 [Ibrutinib] + C[C@]1(O)C[C@@H](c2nc(-c3ccc4ccc(-c5ccccc5)nc4c3)c3c(N)nccn32)C1 [Linsitinib] (partner 1 µM)
How it was run: as §1

| Cell Line | relative viability (Ibrutinib + Bortezomib; first compound 0.005 µM) | relative viability (Ibrutinib + Bortezomib; first compound 0.01581 µM) | relative viability (Ibrutinib + Bortezomib; first compound 0.05 µM) | relative viability (Ibrutinib + Bortezomib; first compound 0.1581 µM) | relative viability (Ibrutinib + Bortezomib; first compound 0.5 µM) | relative viability (BMX-IN-1 + Foretinib; first compound 0.02 µM) | relative viability (BMX-IN-1 + Foretinib; first compound 0.2 µM) | relative viability (BMX-IN-1 + Foretinib; first compound 0.6325 µM) | relative viability (BMX-IN-1 + Foretinib; first compound 2 µM) | relative viability (Ibrutinib + Foretinib; first compound 0.01581 µM) | relative viability (Ibrutinib + Foretinib; first compound 0.05 µM) | relative viability (Ibrutinib + Foretinib; first compound 0.1581 µM) | relative viability (Ibrutinib + Foretinib; first compound 0.5 µM) | relative viability (Ibrutinib + Linsitinib; first compound 0.005 µM) | relative viability (Ibrutinib + Linsitinib; first compound 0.01581 µM) | relative viability (Ibrutinib + Linsitinib; first compound 0.05 µM) | relative viability (Ibrutinib + Linsitinib; first compound 0.1581 µM) | relative viability (Ibrutinib + Linsitinib; first compound 0.5 µM) | relative viability (Ibrutinib + Foretinib; first compound 0.005 µM) |
| --- | --- | --- | --- | --- | --- | --- | --- | --- | --- | --- | --- | --- | --- | --- | --- | --- | --- | --- | --- |
| NCI-H1703 | 0.374 | 0.308 | 0.332 | 0.409 | 0.231 | 0.358 | 0.351 | 0.298 | 0.322 | 0.322 | 0.317 | 0.307 | 0.338 | 0.178 | 0.676 | 0.632 | 0.467 | 0.627 | – |
| NCI-H1734 | 0.799 | 0.923 | 1.02 | 0.989 | 0.929 | 1.01 | 0.954 | 1.08 | 0.796 | 0.822 | 0.965 | 0.895 | 0.718 | 0.801 | 0.887 | 0.885 | 0.885 | 0.745 | 0.827 |
| NCI-H1755 | 0.914 | 0.983 | 1.02 | 0.95 | 0.969 | 0.833 | 0.891 | 1.05 | 0.905 | 0.925 | 0.951 | 1.02 | 0.855 | 1.02 | 0.92 | 1.06 | 1.02 | 0.903 | 0.929 |
| NCI-H1915 | – | 0.996 | 1 | 1.05 | 0.979 | 1.16 | 1.25 | 1.12 | 1.07 | 1.07 | 1.11 | 1.15 | 1.09 | – | 1.03 | 1.12 | 1.13 | 1.1 | 1.12 |
| NCI-H1975 | 0.417 | 0.328 | 0.274 | 0.383 | 0.226 | 0.938 | 1.08 | 1.01 | 0.93 | 0.891 | 0.819 | 0.96 | 0.544 | 0.916 | 0.834 | 0.844 | 0.985 | 0.503 | 0.973 |
| NCI-H1993 | 0.728 | 0.882 | 0.789 | – | 0.681 | 0.882 | 0.816 | 0.731 | 0.755 | 0.72 | 0.759 | 0.783 | 0.62 | 0.738 | 0.698 | 0.694 | – | 0.647 | 0.74 |
| NCI-H2009 | 1.09 | 1 | 0.988 | 0.864 | 1.05 | 1.38 | 1.26 | 1.24 | 1.28 | 1.21 | 1.14 | 1.19 | 1.26 | 1.21 | 1.13 | 1.14 | 1.23 | 1.18 | 1.31 |
| NCI-H2023 | 0.848 | 0.819 | 0.949 | 1.04 | 0.876 | 0.928 | 1.12 | 1.06 | 0.926 | 0.721 | 0.562 | 0.975 | 0.459 | 0.601 | 0.494 | 0.53 | 0.596 | 0.456 | 0.747 |
| NCI-H2085 | – | 0.954 | 0.983 | 0.963 | 0.963 | 0.978 | 0.847 | 0.763 | 0.804 | 0.628 | 0.941 | 1.1 | 0.625 | 1.04 | 0.884 | 0.865 | 0.895 | 0.775 | 0.916 |
| NCI-H2087 | 0.755 | 0.741 | 0.851 | 0.844 | 0.889 | 1.25 | 1.12 | 1.37 | 1.26 | 1.21 | 1.09 | – | 1.24 | 1.07 | 1.06 | – | 1.02 | 0.943 | 1.18 |
| NCI-H2126 | – | 1.13 | 1.12 | 1.11 | 1.1 | 1.15 | 1.21 | 1.32 | 1.25 | 1.03 | 1.24 | 1.25 | 1.02 | – | 0.66 | 0.705 | 0.732 | 0.539 | – |
| NCI-H2228 | 0.996 | 0.989 | 1.13 | 1.37 | 0.92 | 1.19 | 1.08 | 1.03 | 0.916 | – | 0.915 | 0.892 | 0.609 | 0.62 | 0.689 | 0.71 | 0.936 | 0.454 | 0.845 |
| NCI-H2347 | – | 0.982 | 1.03 | – | 0.871 | 0.826 | 1.03 | 1.36 | 0.854 | 0.811 | 0.8 | – | 0.725 | – | 0.979 | 1.04 | 0.816 | 1.05 | – |
| NCI-H2405 | 1.07 | 0.977 | 0.948 | 0.856 | 0.767 | 1.04 | 1.1 | 1.11 | 1.03 | 1.07 | 1.08 | 1.06 | – | 0.849 | 0.801 | 0.929 | – | 0.869 | 1.11 |
| NCI-H3122 | 1.07 | 1.05 | 1.08 | 0.955 | 1.02 | 1 | 0.951 | 0.957 | 0.984 | 0.984 | 1.04 | 0.938 | 1.04 | – | 1.03 | 1.03 | 0.992 | 1.07 | 1.02 |
| PC-3 [JPC-3] | 0.837 | 0.805 | 0.831 | 0.826 | 0.635 | 1.12 | 1.16 | 1.09 | 1 | 0.936 | 0.891 | 1.09 | 0.547 | 0.917 | 0.93 | 0.956 | 0.955 | 0.619 | 1.05 |
| PC-14 | 0.891 | 0.878 | 0.835 | 0.819 | 0.744 | 1.04 | 1.05 | 1.16 | 0.922 | 0.907 | – | 1.02 | 0.985 | 1 | 0.949 | 0.976 | 0.902 | 0.462 | 1.1 |
| RERF-LC-KJ | 0.96 | 0.977 | 1.03 | 1 | 0.851 | 0.971 | 1.02 | 1.08 | 0.868 | 0.707 | 0.841 | 0.895 | 0.845 | 0.903 | 0.804 | 0.818 | 0.824 | 0.778 | 0.97 |

From the supplement of paper PMC10307832
